# Patent US11667649B2, “Heteroaromatic macrocyclic ether chemotherapeutic agents” (Nuvalent, Inc., priority 2020, dated 2023)
# Test system: TPM3-NTRK1-wt IC50 / primary target (e.g. CD74-ROS1-wt) IC50, Ba/F3 cells
# Test: Cell assay TRKA selectivity (TRKA potency divided by primary target potency)
# Assay type: cell-based
# Conditions: for TPM3-NTRK1-wt/CD74-ROS1-G2032R: TRKA selectivity ratio: TPM3-NTRK1-wt IC50 / CD74-ROS1-G2032R IC50, Ba/F3 cells; for TPM3-NTRK1-wt/CD74-ROS1-wt: TRKA selectivity ratio: TPM3-NTRK1-wt IC50 / CD74-ROS1-wt IC50, Ba/F3 cells; for TPM3-NTRK1-wt/EML4-ALK-L1196M-G1202R: TRKA selectivity ratio: TPM3-NTRK1-wt IC50 / EML4-ALK-L1196M-G1202R IC50, Ba/F3 cells; for TPM3-NTRK1-wt/EML4-ALK-wt: TRKA selectivity ratio: TPM3-NTRK1-wt IC50 / EML4-ALK-wt IC50, Ba/F3 cells
# Summary of the method: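 Ratio of TRKA to primary-target cellular IC50 (e.g. TPM3-NTRK1-wt/CD74-ROS1-wt), grouped into bins A >30, B >10, C ≥1, D <1. Each IC50 came from engineered Ba/F3 fusion lines grown without IL-3, dosed for 72 h and read as CellTiter-Glo luminescence, with a four-parameter logistic fit.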
SMILES,TPM3-NTRK1-wt/CD74-ROS1-G2032R,TPM3-NTRK1-wt/CD74-ROS1-wt,TPM3-NTRK1-wt/EML4-ALK-L1196M-G1202R,TPM3-NTRK1-wt/EML4-ALK-wt
"CCn1ncc2c1-c1cnc(N)c(c1)O[C@H](C)c1cc(F)ccc1-n1nc(OC)cc1C2 [Example 98, (19R)-3-ethyl-16-fluoro-10-methoxy-19-methyl-20-oxa-3,4,11,12,23-pentaazapentacyclo[19.3.1.0^2,^6.0^8,^12.0^13,^18]pentacosa-1(24),2(6),4,8,10,13,15,17,21(25),22-decaen-22-amine]","A (bin A for very high selectivity, ratio>30-fold)","A (bin A for very high selectivity, ratio>30-fold)","C (bin C for moderate selectivity, ratio≥1)","B (bin B for high selectivity, ratio>10-fold)"
"C[C@H]1Oc2cc(cnc2N)-c2c(cnn2CC2CC2)Cc2cccnc2-c2ccc(F)cc21 [Example 137, (20R)-3-(cyclopropylmethyl)-17-fluoro-20-methyl-21-oxa-3,4,12,24-tetraazapentacyclo[20.3.1.0^2,^6.0^8,^13.0^14,^19]hexacosa-1(25),2(6),4,8(13),9,11,14,16,18,22(26),23-undecaen-23-amine]","A (bin A for very high selectivity, ratio>30-fold)","A (bin A for very high selectivity, ratio>30-fold)","A (bin A for very high selectivity, ratio>30-fold)","A (bin A for very high selectivity, ratio>30-fold)"
"C[C@H]1Oc2cc(cnc2N)-c2c(nnn2CC2CC2)Cc2cccnc2-c2ccc(F)cc21 [Example 116, (20R)-3-(cyclopropylmethyl)-17-fluoro-20-methyl-21-oxa-3,4,5,12,24-pentaazapentacyclo[20.3.1.0^2,^6.0^8,^13.0^14,^19]hexacosa-1(25),2(6),4,8(13),9,11,14,16,18,22(26),23-undecaen-23-amine]","A (bin A for very high selectivity, ratio>30-fold)","A (bin A for very high selectivity, ratio>30-fold)","A (bin A for very high selectivity, ratio>30-fold)","A (bin A for very high selectivity, ratio>30-fold)"
"CCn1ncc2c1-c1cnc(N)c(c1)O[C@H](C)c1cc(F)ccc1-c1nc(OC)ccc1C2 [Example 145, (20R)-3-ethyl-17-fluoro-11-methoxy-20-methyl-21-oxa-3,4,12,24-tetraazapentacyclo[20.3.1.0^2,^6.0^8,^13.0^14,^19]hexacosa-1(25),2(6),4,8(13),9,11,14,16,18,22(26),23-undecaen-23-amine]","A (bin A for very high selectivity, ratio>30-fold)","A (bin A for very high selectivity, ratio>30-fold)","C (bin C for moderate selectivity, ratio≥1)","A (bin A for very high selectivity, ratio>30-fold)"
"CCn1nnc2c1-c1cnc(N)c(c1)O[C@H](C)c1cc(F)ccc1-c1nc(C)sc1C2 [Example 78, (19R)-3-ethyl-16-fluoro-10,19-dimethyl-20-oxa-9-thia-3,4,5,11,23-pentaazapentacyclo[19.3.1.0^2,^6.0^8,^12.0^13,^18]pentacosa-1(24),2(6),4,8(12),10,13,15,17,21(25),22-decaen-22-amine]","A (bin A for very high selectivity, ratio>30-fold)","A (bin A for very high selectivity, ratio>30-fold)","B (bin B for high selectivity, ratio>10-fold)","A (bin A for very high selectivity, ratio>30-fold)"
"C[C@H]1Oc2cc(cnc2N)-c2c(nn(C)c2C#N)Cc2ccnn2-c2ccc(F)cc21 [Example 169, (19R)-22-amino-16-fluoro-4,19-dimethyl-20-oxa-4,5,11,12,23-pentaazapentacyclo[19.3.1.0^2,^6.0^8,^12.0^13,^18]pentacosa-1(24),2,5,8,10,13,15,17,21(25),22-decaene-3-carbonitrile]","C (bin C for moderate selectivity, ratio≥1)","A (bin A for very high selectivity, ratio>30-fold)","D (bin D for low selectivity, ratio<1)","A (bin A for very high selectivity, ratio>30-fold)"
"CCc1nnn2c1-c1cnc(N)c(c1)O[C@H](C)c1cc(F)ccc1-c1ncc(F)cc1C2 [Example 16, (20R)-3-ethyl-10,17-difluoro-20-methyl-21-oxa-4,5,6,12,24-pentaazapentacyclo[20.3.1.0^2,^6.0^8,^13.0^14,^19]hexacosa-1(25),2,4,8(13),9,11,14,16,18,22(26),23-undecaen-23-amine]","B (bin B for high selectivity, ratio>10-fold)","A (bin A for very high selectivity, ratio>30-fold)","C (bin C for moderate selectivity, ratio≥1)","B (bin B for high selectivity, ratio>10-fold)"
"C[C@H]1Oc2cc(cnc2N)-c2c(C#N)ncn2Cc2cccnc2-c2ccc(F)cc21 [Example 12, (20R)-23-amino-17-fluoro-20-methyl-21-oxa-4,6,12,24-tetraazapentacyclo[20.3.1.0^2,^6.0^8,^13.0^14,^19]hexacosa-1(25),2,4,8(13),9,11,14,16,18,22(26),23-undecaene-3-carbonitrile]","A (bin A for very high selectivity, ratio>30-fold)","A (bin A for very high selectivity, ratio>30-fold)","A (bin A for very high selectivity, ratio>30-fold)","A (bin A for very high selectivity, ratio>30-fold)"
"CCc1nn(C)c2c1-c1cnc(N)c(c1)OCc1cc(F)ccc1-c1nc(C)sc1C2 [Example 175, 3-ethyl-16-fluoro-5,10-dimethyl-20-oxa-9-thia-4,5,11,23-tetraazapentacyclo[19.3.1.0^2,^6.0^8,^12.0^13,^18]pentacosa-1(24),2(6),3,8(12),10,13,15,17,21(25),22-decaen-22-amine]","A (bin A for very high selectivity, ratio>30-fold)","A (bin A for very high selectivity, ratio>30-fold)","B (bin B for high selectivity, ratio>10-fold)","A (bin A for very high selectivity, ratio>30-fold)"
"CCn1ncc2c1-c1cnc(N)c(c1)O[C@H](C)c1cc(F)ccc1-c1nn(C(F)F)cc1C2 [Example 86, (19R)-10-(difluoromethyl)-3-ethyl-16-fluoro-19-methyl-20-oxa-3,4,10,11,23-pentaazapentacyclo[19.3.1.0^2,^6.0^8,^12.0^13,^18]pentacosa-1(24),2(6),4,8,11,13,15,17,21(25),22-decaen-22-amine]","B (bin B for high selectivity, ratio>10-fold)","A (bin A for very high selectivity, ratio>30-fold)","D (bin D for low selectivity, ratio<1)","C (bin C for moderate selectivity, ratio≥1)"
"C[C@H]1Oc2cc(cnc2N)-c2c(cnn2C2CCC2)Cc2cnn(C)c2-c2ccc(F)cc21 [Example 5, (19R)-3-cyclobutyl-16-fluoro-11,19-dimethyl-20-oxa-3,4,10,11,23-pentaazapentacyclo[19.3.1.0^2,^6.0^8,^12.0^13,^18]pentacosa-1(24),2(6),4,8(12),9,13,15,17,21(25),22-decaen-22-amine]","A (bin A for very high selectivity, ratio>30-fold)","A (bin A for very high selectivity, ratio>30-fold)","A (bin A for very high selectivity, ratio>30-fold)","A (bin A for very high selectivity, ratio>30-fold)"
"CCn1ncc2c1-c1ccc(F)cc1C(C)Oc1nc(cnc1N)-c1c(cnn1C)C2 (centres unmarked) [Example 165, 11-ethyl-16-fluoro-3,19-dimethyl-20-oxa-3,4,10,11,23,25-hexaazapentacyclo[19.3.1.0^2,^6.0^8,^12.0^13,^18]pentacosa-1(24),2(6),4,8(12),9,13,15,17,21(25),22-decaen-22-amine]","C (bin C for moderate selectivity, ratio≥1)","B (bin B for high selectivity, ratio>10-fold)","D (bin D for low selectivity, ratio<1)","C (bin C for moderate selectivity, ratio≥1)"
"C[C@H]1Oc2cc(cnc2N)-c2c(CC3CC3)cnn2Cc2cccnc2-c2ccc(F)cc21 [Example 146, (20R)-3-(cyclopropylmethyl)-17-fluoro-20-methyl-21-oxa-5,6,12,24-tetraazapentacyclo[20.3.1.0^2,^6.0^8,^13.0^14,^19]hexacosa-1(25),2,4,8(13),9,11,14,16,18,22(26),23-undecaen-23-amine]","A (bin A for very high selectivity, ratio>30-fold)","A (bin A for very high selectivity, ratio>30-fold)","B (bin B for high selectivity, ratio>10-fold)","A (bin A for very high selectivity, ratio>30-fold)"
"C[C@H]1Oc2cc(cnc2N)-c2c(CC(F)F)nn(C)c2Cc2cc(C(F)F)nn2-c2ccc(F)cc21 [Example 180, (19R)-3-(2,2-difluoroethyl)-10-(difluoromethyl)-16-fluoro-5,19-dimethyl-20-oxa-4,5,11,12,23-pentaazapentacyclo[19.3.1.0^2,^6.0^8,^12.0^13,^18]pentacosa-1(24),2(6),3,8,10,13,15,17,21(25),22-decaen-22-amine]","A (bin A for very high selectivity, ratio>30-fold)","A (bin A for very high selectivity, ratio>30-fold)","C (bin C for moderate selectivity, ratio≥1)","A (bin A for very high selectivity, ratio>30-fold)"
